The results in this text go back to patent US20190321493A1, “MATERIALS AND METHODS FOR TREATING REGIONAL PAIN” (priority 2016, published 2019).

Series [1] relates to nociceptive neurons of the dorsal root ganglion (DRG). As to the kind of experiment: MRI-guided intraganglionic injection of RTX (RTXcap) with gadoteridol into swine DRG, substance P immunohistochemistry. The class given is in vivo. The source says: FIGS. 1A-1D are fluorescent immunohistochemistry (IHC) images. […] Nociceptive fibers in all panels are visualized using the biomarker substance P (sP).
FIGS. 2A-2C are fluorescent IHC images of a DRG. […] The outcomes in FIG. 2B and FIG. 2C were predicted from intraprocedural imaging performed during RTX delivery (noted as a success (B) and failure (C) to achieve the intended contrast media dispersion).
Domestic swine were chosen because the porcine lumbar spinal column resembles the human lumbosacral anatomy. Swine were sedated with Telazol and Xylazine, intubated and kept under deep isoflurane inhalation anesthesia for the duration of the procedure titrated to effect. Swine were placed in an MRI scanner (GE 3T, GE Healthcare). Overview MRI imaging was obtained of the lumbosacral spine. DRG at the L4, L5, S1, and S2 level were outlined (FIG. 1A).
The guide needle was passed through the skin lateral to the midline and incrementally advanced ventromedially toward the DRG intraprocedural MRI imaging monitored advancement of the needle, and any deviations from the optimal trajectory were corrected. When the needle tip was visualized directly adjacent to the dorsal aspect of the DRG, the stylet of the guide needle was withdrawn. The stepped stylet was then inserted through the guide needle. The length of the stepped stylet exceeded the length of the guide needle and therefore only the stepped tip of the stylet but not the Quincke tip of the guide needle penetrated the DRG parenchyma. The stepped stylet was then withdrawn and replaced by the stepped needle. The prior insertion of the stepped stylet prevented clogging of the narrow needle tip. RTX 5 μg and gadoteridol 1% V/V was injected in a volume of 50 μl per DRG over a period of 5 minutes (RTX was solubilized in water with sulfobutyl ether β-cyclodextrin, designated as RTXcap). MRI imaging verified when the injection was successful and when the injection needed to be repeated (FIG. 4). Pigs were sacrificed 5 weeks post injection and the tissues harvested for histopathological analysis.

The test system of series [2] is nociceptive fibers in the dorsal horn of the spinal cord. As to the kind of experiment: Periganglionic (epidural) injection of RTX, immunohistochemistry of spinal cord dorsal horn. It counts as in vivo, swine. The conditions noted are these: FIG. 3B vs 3A.
The nature of series [3]: Drug distribution in DRG after convection enhanced delivery of DAPI. The class given is in vivo, swine. The conditions noted are these: FIG. 5. The source says:
FIGS. 5A-5C illustrate drug distribution in swine DRG. […] is a schematic of convection enhanced delivery (CED) needle placement in a DRG. FIG. 5B contains an image of a control DRG. FIG. 5C contains an image of a 4′,6-diamidino-2-phenylindole (DAPI) injected DRG.
An incision was made in the overlying skin at an anatomical level affected by pain in a patient. The subcutaneous fat and musculature were incised and reflected, exposing the bony lamina. Using appropriate instruments, a portion of the lamina was removed to expose the neural elements. The meningeal sleeve surrounding the DRG and spinal nerve was surgically exposed by microdissection of bone and tissue, which may require extending the laminectomy dissection, using standard techniques such as blunt or sharp dissection with meticulous hemostasis. Thereby the DRG was exposed and grossly visualized. A convection enhanced delivery needle was placed into the exposed DRG. RTXcap was injected in a preparation that also contains a contrast agent (e.g., in this case DAPI) allowing direct visualization of analgesic agent injection by eye sight with or without a surgical loupe or surgical operating microscope.

As for `C=C(C)[C@]12C[C@@H](C)[C@@]34O[C@](Cc5ccccc5)(O[C@@H]1[C@@H]3C=C(COC(=O)Cc1ccc(O)c(OC)c1)C[C@]1(O)C(=O)C(C)=C[C@@H]41)O2` [RTX, resiniferatoxin], the “neurolysis of the targeted tissue” value in series [1] (RTX 5 μg + gadoteridol 1% V/V, 50 μl per DRG, tissues 5 weeks post injection) is “can result in neurolysis of the targeted tissue”. In addition, the “nociceptive neurons (sP fluorescence) in DRG” value in series [1] (after failed image-guided injection, FIG. 2C) was “normal numbers of nociceptive neurons”; in series [1] (after successful MRI-guided injection, FIG. 2B), “elimination of most nociceptive neurons”. The “nociceptive fibers (substance P) in the dorsal horn of the spinal cord” value in series [1] (intraganglionic injection, RTX solubilized in water with sulfobutyl ether β-cyclodextrin, FIG. 1B vs 1A) is “elimination of nociceptive fibers”. In series [1] (intraganglionic injection, RTX solubilized in water with sulfobutyl ether β-cyclodextrin, FIG. 1D vs 1C), the “nociceptive fibers (substance P) in the dorsal root ganglion” value is reported as “elimination of nociceptive fibers”. Besides, the “nociceptive fibers in the dorsal horn of the spinal cord” value in series [2] is “elimination of nociceptive fibers”.

Consider `N=C(N)c1ccc(-c2cc3ccc(C(=N)N)cc3[nH]2)cc1` [DAPI, 4′,6-diamidino-2-phenylindole], for which the “distribution in DRG” value in series [3] was “good distribution throughout the DRG”.
